According to patent US20260027087A1, “DOSING REGIMENS COMPRISING A KAT6 INHIBITOR FOR THE TREATMENT OF CANCER” (PFIZER INC., priority 2022, published 2026):
Like-named read-outs stand apart in the source and are kept apart here.

Experiment: Phase 1 clinical trial: COMPOUND A plasma pharmacokinetics
Type: in vivo, human
Conditions: for CL/F (apparent clearance) / Cmax / AUC: geometric mean (CV %); for Tmax / Cmax / AUC: human, plasma; for AUC: read-out: AUC24
Protocol: The patients in this trial are intolerant of or resistant to standard therapy.
COMPOUND A was orally administered at 2 mg, 5 mg, 8 mg, and 15 mg QD alone or 5 mg QD in combination with 500 mg of fulvestrant.
Preliminary pharmacokinetic parameters are available from 23 participants following the 1st oral dose (Day 1 of Cycle 1) and at steady state (Day 15 of Cycle 1) and presented in Table 1.
1S COMPOUND A was orally administered at 1 mg, 2 mg, 5 mg, 8 mg, and 15 mg QD alone or 5 mg QD in combination with 500 mg of fulvestrant.
A total of 29 participants had evaluable PK concentration data in Part 1A and Part 1B, at the time of the data cut-off date of 30 Sep. 2022. Of these participants, two (2) in the 1 mg QD dose group were excluded from Cycle 1 Day 15 summaries due to either dose interruption impacting PK analysis or sample collection after the data cut-off date.
Participants were to swallow COMPOUND A whole tablets and were not to manipulate or chew the study intervention prior to swallowing. COMPOUND A was administered QD by mouth for all cohorts on a continuous basis. The once daily dose was administered in 24±3 hour intervals (i.e., no less than 21 hours and no more than 27 hours apart). All cycles were 28 days in length.

COc1ccccc1S(=O)(=O)Nc1noc2cc(Cn3cccn3)cc(OC)c12 [COMPOUND A, 2-Methoxy-N-{4-methoxy-6-[(1H-pyrazol-1-yl)methyl]-1,2-benzoxazol-3-yl}benzene-1-sulfonamide]
time to steady state (1 mg to 15 mg QD, cut-off 30 Sep. 2022): achieved by Cycle 1 Day 15
Rac (ratio of AUC24 at Cycle 1 Day 15 to AUC24 at Cycle 1 Day 1) (5 mg QD oral in combination with fulvestrant, N=4, median (minimum, maximum)): 4.2 (3.2, 5.1)
Rac (ratio of AUC24 at Cycle 1 Day 15 to AUC24 at Cycle 1 Day 1) (5 mg QD oral monotherapy, N=4, median (minimum, maximum)): 4.1 (2.9, 5.5)
Rac (ratio of AUC24 at Cycle 1 Day 15 to AUC24 at Cycle 1 Day 1) (8 mg QD oral monotherapy, N=7, median (minimum, maximum)): 3.8 (3.1, 5.1)
Rac (ratio of AUC24 at Cycle 1 Day 15 to AUC24 at Cycle 1 Day 1) (15 mg QD oral monotherapy, N=6, median (minimum, maximum)): 3.8 (2.3, 4.7)
CL/F (apparent clearance) (C1D15, 5 mg QD oral in combination with fulvestrant, N=4): 0.10 (26.9) L/hr
CL/F (apparent clearance) (C1D15, 5 mg QD oral monotherapy, N=4): 0.14 (23.9) L/hr
CL/F (apparent clearance) (C1D15, 8 mg QD oral monotherapy, N=7): 0.10 (9.7) L/hr
CL/F (apparent clearance) (C1D15, 15 mg QD oral monotherapy, N=6): 0.12 (43.2) L/hr
drug-drug interaction between COMPOUND A and fulvestrant (CL/F similar alone and in combination): no apparent drug-drug interaction
linearity of pharmacokinetics (CL/F similar at each dose level, 2 mg to 15 mg, cut-off 23 Mar. 2022): linear
linearity of PK (between 1 mg and 15 mg QD dose regimens, cut-off 30 Sep. 2022): linear
COMPOUND A exposure (AUC24) versus dose (dose range 2 mg to 15 mg, alone or in combination with fulvestrant): increased proportionally when dose was increased
Tmax (oral, following repeated daily dosing to Day 15, read-out: median Tmax): 3 h
Cmax (po, 5 mg, C1D1 (after 1st dose), 5 mg QD oral monotherapy, N=4): 508 ng/mL
AUC (po, 5 mg, C1D1, 5 mg QD oral monotherapy, N=4): 8900 ng·h/mL
Tmax (po, 5 mg, C1D1, 5 mg QD oral monotherapy, N=4, median (minimum, maximum), read-out: Tmax): 3.5 h
Cmax (po, 5 mg, C1D15 (steady state), 5 mg QD oral monotherapy, N=4): 1710 ng/mL
AUC (po, 5 mg, C1D15, 5 mg QD oral monotherapy, N=4): 35900 ng·h/mL
Tmax (po, 5 mg, C1D15, 5 mg QD oral monotherapy, N=4, median (minimum, maximum), read-out: Tmax): 3 h
Cmax (po, 8 mg, C1D1 (after 1st dose), 8 mg QD oral monotherapy, N=7): 1050 ng/mL
AUC (po, 8 mg, C1D1, 8 mg QD oral monotherapy, N=7): 20500 ng·h/mL
Tmax (po, 8 mg, C1D1, 8 mg QD oral monotherapy, N=7, median (minimum, maximum), read-out: Tmax): 3 h
Cmax (po, 8 mg, C1D15 (steady state), 8 mg QD oral monotherapy, N=7): 3620 ng/mL
AUC (po, 8 mg, C1D15, 8 mg QD oral monotherapy, N=7): 76500 ng·h/mL
Tmax (po, 8 mg, C1D15, 8 mg QD oral monotherapy, N=7, median (minimum, maximum), read-out: Tmax): 3 h
Cmax (po, 15 mg, C1D1 (after 1st dose), 15 mg QD oral monotherapy, N=6): 1940 ng/mL
AUC (po, 15 mg, C1D1, 15 mg QD oral monotherapy, N=6): 35700 ng·h/mL
Tmax (po, 15 mg, C1D1, 15 mg QD oral monotherapy, N=6, median (minimum, maximum), read-out: Tmax): 3.5 h
Cmax (po, 15 mg, C1D15 (steady state), 15 mg QD oral monotherapy, N=6): 6030 ng/mL
AUC (po, 15 mg, C1D15, 15 mg QD oral monotherapy, N=6): 127000 ng·h/mL
Tmax (po, 15 mg, C1D15, 15 mg QD oral monotherapy, N=6, median (minimum, maximum), read-out: Tmax): 3 h
Cmax (po, C1D1 (after 1st dose), 5 mg QD oral in combination with fulvestrant, N=4): 641 ng/mL
AUC (po, C1D1, 5 mg QD oral in combination with fulvestrant, N=4): 12100 ng·h/mL
Tmax (po, C1D1, 5 mg QD oral in combination with fulvestrant, N=4, median (minimum, maximum), read-out: Tmax): 6 h
Cmax (po, C1D15 (steady state), 5 mg QD oral in combination with fulvestrant, N=4): 2340 ng/mL
AUC (po, C1D15, 5 mg QD oral in combination with fulvestrant, N=4): 50100 ng·h/mL
Tmax (po, C1D15, 5 mg QD oral in combination with fulvestrant, N=4, median (minimum, maximum), read-out: Tmax): 6 h
steady-state concentrations relative to Cerf targets (defined from preclinical models) (when dosed at ≥1 mg): near or above Cerf targets
